# Test results reported in patent US5869494A, “Uses for barbituric acid analogs” (priority 1997, dated 1999).
# Read-outs that look alike come from different tables or passages of the source.
# How the values were obtained:
# [1] = test system: L1210 mouse leukemia cells; assay: Cytotoxicity for leukemia cells (L1210); type: cell-based; settings: for cytotoxicity at 50 µg/mL / cytotoxicity at 110 µg/mL / cytotoxicity at 150 µg/mL: Mus musculus; for cytotoxicity at 50 µg/mL: 50 μg/ml; for cytotoxicity at 110 µg/mL: 110 μg/ml; for cytotoxicity at 150 µg/mL: 150 μg/ml
# Procedure: (§1) In the following examples, tumor cells were treated with varying concentrations of compounds C1, C2, C4 or C5 dissolved in absolute ethanol. To limit any non-specific toxicity, the final concentration of ethanol was not allowed to exceed 0.5%. Stock concentrations of 5 mg/ml or 20 mg/ml were used. Viability of cells was determined in some studies by the trypan blue dye exclusion method. In other studies, cell viability/proliferation activity was determined by MTT assay by using a kit obtained from Promega, (Promega Corp., Madison, Wis. 53711). For this assay, a 100 μl cell suspension containing 5-10^3 monolayer cells or 1×10^5 suspension cells was placed in the wells of a 96-well microtiter plate. After overnight incubation, cells were treated with different concentrations of the test compound. Control wells received vehicle only. After 24, 48, 72 or 96 h of incubation, 50 μl of MTT dye solution was added. After 4 h of incubation at 37° C., 100 μl of solubilization/stop solution was added. After another h of incubation, cells were mixed using a multi-channel pipet and the absorption of the dye color was recorded at 570 nm using a plate reading absorption spectrophotometer.
# The viability of the cells was […]
# NCI-H322M = assay: NCI tumor cell line screen (SRB assay); type: cell-based; settings: Homo sapiens, read-out: PERCENT GROWTH
# Procedure: (§2) The National Cancer Institute carried out the studies at the direction of the present inventor.
# (§3) In the tests, the National Cancer Institute used the SRB (sulforhodamine B) assay as described by Skehan et al., (Journal of the National Cancer Institute, 82:13, Jul. 4, 1990, 1107-1112). Briefly, the assay is as follows. TCA-fixed cells were stained for 30 minutes with 0.4% (wt/vol) SRB dissolved in 1% acetic acid. At the end of the staining period, SRB was removed and cultures were quickly rinsed four times with 1% acetic acid to remove unbound dye. The acetic acid was poured directly into the culture wells from a beaker. […] Residual wash solution was removed by sharply flicking plates over a sink, which ensured the complete removal of rinsing solution. […] After being rinsed, the cultures were air dried until no standing moisture was visible. Bound dye was solubilized with 10 mM unbuffered Tris base (pH 10.5) for 5 minutes on a gyratory shaker.
# (§4) Optical density (OD) was read in either a UVmax microtiter plate reader (Molecular Devices, Menlo Park, Calif.) or a Beckman DU-70 spectrophotometer. For maximum sensitivity, OD was measured at 564 nm. Because readings were linear with dye concentrations only below 1.8 OD units, however, suboptimal wavelengths were generally used, so that all samples in an experiment remained within the linear OD range. With most cell lines, wavelengths of approximately 490-530 nm worked well for this purpose.
# (§5) Nine different non-small cell lung carcinoma cell lines, six different colon carcinoma cell lines, six different CNS (central nervous system) carcinoma cell lines, seven different melanoma cell lines, six different ovarian carcinoma cell lines, and eight different renal carcinoma cell lines were tested.
# HCT-15 = assay: NCI tumor cell line screen (SRB assay); type: cell-based; settings: Homo sapiens, read-out: PERCENT GROWTH
# Procedure: as §2, §3, §4, §5
# [2] = test system: BT-20 human breast cancer cells; assay: Cytotoxicity for breast cancer cell line BT-20 (MTT assay); type: cell-based; settings: read-out: Percent cell kill; for cytotoxicity at 50 µg/mL: 50 μg/ml; for cytotoxicity at 100 µg/mL: 100 μg/ml; for cytotoxicity at 150 µg/mL: 150 μg/ml
# Procedure: as §1
# (§6) After the incubation period, viability of the cells was determined by MTT assay (Promega Corp., Madison, Wis. 53711).
# MT-4 cells = assay: Toxicity to MT-4 cells; type: cell-based, human; settings: drug doses of the HIV-1 test (75-125 μg/ml)
# Procedure: After 2 h at 37° C., treated and control HIV-1 samples were added to the indicator MT-4 cells (cultured human T cells) in the presence of 2 μg/ml POLYBRENE™ for 2 h. After washing, MT-4 cells were cultured in the presence of drug-treated or control (untreated) HIV-1. Cell viability of MT-4 cells was determined by the trypan blue dye exclusion method.
# [3] = test system: MCF-7 human breast cancer cells; assay: Cytotoxicity for breast cancer cell line MCF-7 (MTT assay); type: cell-based; settings: read-out: Percent cell kill; for cytotoxicity at 50 µg/mL: 50 μg/ml; for cytotoxicity at 100 µg/mL: 100 μg/ml; for cytotoxicity at 150 µg/mL: 150 μg/ml
# Procedure: as §1, §6
# [4] = test system: Daudi human lymphoma cells; assay: Cytotoxicity for lymphoma cells (Daudi); type: cell-based; settings: for cytotoxicity at 50 µg/mL / cytotoxicity at 100 µg/mL / cytotoxicity at 150 µg/mL: Homo sapiens, Daudi; for cytotoxicity at 50 µg/mL: 50 μg/ml; for cytotoxicity at 100 µg/mL: 100 μg/ml; for cytotoxicity at 150 µg/mL: 150 μg/ml, read-out: % Cytotoxicity
# Procedure: as §1
# The viability of the cells was
# Compounds C4 and C5 were also tested for toxicity against human lymphoma Daudi cells.
# [5] = test system: DU-145 human prostate cancer cells; assay: Cytotoxicity for prostate cancer cell line DU-145 (MTT assay); type: cell-based; settings: read-out: Percent cell kill; for cytotoxicity at 50 µg/mL: 50 μg/ml; for cytotoxicity at 100 µg/mL: 100 μg/ml; for cytotoxicity at 150 µg/mL: 150 μg/ml
# Procedure: as §1, §6
# [6] = test system: PC-3 human prostate cancer cells; assay: Cytotoxicity for prostate cancer cell line PC-3 (MTT assay); type: cell-based; settings: read-out: Percent cell kill; for cytotoxicity at 50 µg/mL: 50 μg/ml; for cytotoxicity at 100 µg/mL: 100 μg/ml; for cytotoxicity at 150 µg/mL: 150 μg/ml
# Procedure: as §1, §6
# [7] = 48 h, all concentrations tested
smiles,measurement,setting,value
"CCCCN1C(=O)CC(=O)N(CCCC)C1=S [Compound C1, 4,6(1H, 5H)-pyrimidinedione, 1,3-dibutyldihydro-2-thioxo]",killing of cells,[1]; [7],over 99%
same,cytotoxicity at 50 µg/mL,"[1]; L1210, 24 h, 24 hr",81.2 ± 4.3%
same,cytotoxicity at 110 µg/mL,"[1]; L1210, 24 h, 24 hr",93.5 ± 3.1%
same,cytotoxicity at 150 µg/mL,"[1]; L1210, 24 h, 24 hr",89.2 ± 3.2%
same,cytotoxicity at 50 µg/mL,"[1]; L1210, 48 h, 48 hr",99%
same,cytotoxicity at 110 µg/mL,"[1]; L1210, 48 h, 48 hr, read-out: % Cytotoxicity",99.9%
same,cytotoxicity at 150 µg/mL,"[1]; L1210, 48 h, 48 hr",99.9%
same,activity,NCI-H322M; 10^-3.0 Molar,-100%
same,activity at 100 µM,NCI-H322M; 10^-4.0 Molar,127%
same,activity at 10 µM,NCI-H322M; 10^-5.0 Molar,136%
same,activity at 1 µM,NCI-H322M; 10^-6.0 Molar,144%
same,activity at 0.1 µM,NCI-H322M; 10^-7.0 Molar,145%
same,activity at 100 µM,HCT-15; 10^-4.0 Molar,72%
same,activity at 10 µM,HCT-15; 10^-5.0 Molar,102%
same,activity at 1 µM,HCT-15; 10^-6.0 Molar,102%
same,activity at 0.1 µM,HCT-15; 10^-7.0 Molar,99%
same,cytotoxicity at 50 µg/mL,"[2]; BT-20, 24 h, 24 hr",43.3 ± 4.1%
same,cytotoxicity at 100 µg/mL,"[2]; BT-20, 24 h, 24 hr",62 ± 7.9%
same,cytotoxicity at 150 µg/mL,"[2]; BT-20, 24 h, 24 hr",94 ± 4.2%
same,cytotoxicity at 50 µg/mL,"[2]; BT-20, 48 h, 48 hr",65.5 ± 2.4%
same,cytotoxicity at 100 µg/mL,"[2]; BT-20, 48 h, 48 hr",91.3 ± 2.5%
same,cytotoxicity at 150 µg/mL,"[2]; BT-20, 48 h, 48 hr",96.5 ± 2.4%
same,cytotoxicity at 50 µg/mL,"[2]; BT-20, 72 h, 72 hr",73.3 ± 2.9%
same,cytotoxicity at 100 µg/mL,"[2]; BT-20, 72 h, 72 hr",86.8 ± 3.6%
same,cytotoxicity at 150 µg/mL,"[2]; BT-20, 72 h, 72 hr",86 ± 3.6%
same,cytotoxicity at 50 µg/mL,"[2]; BT-20, 96 h, 96 hr",100%
same,cytotoxicity at 100 µg/mL,"[2]; BT-20, 96 h, 96 hr",100%
same,cytotoxicity at 150 µg/mL,"[2]; BT-20, 96 h, 96 hr",100%
same,toxicity to the MT-4 cells,MT-4 cells,not toxic to the MT-4 cells
same,cytotoxicity at 50 µg/mL,"[3]; MCF7, 24 h, 24 hr",39.5 ± 10.5%
same,cytotoxicity at 100 µg/mL,"[3]; MCF7, 24 h, 24 hr",57.3 ± 1.5%
same,cytotoxicity at 150 µg/mL,"[3]; MCF7, 24 h, 24 hr",87.8 ± 8.8%
same,cytotoxicity at 50 µg/mL,"[3]; MCF7, 48 h, 48 hr",67.5 ± 5.3%
same,cytotoxicity at 100 µg/mL,"[3]; MCF7, 48 h, 48 hr",92.8 ± 4.9%
same,cytotoxicity at 150 µg/mL,"[3]; MCF7, 48 h, 48 hr",92.3 ± 5.3%
same,cytotoxicity at 50 µg/mL,"[3]; MCF7, 72 h, 72 hr",85.8 ± 3.8%
same,cytotoxicity at 100 µg/mL,"[3]; MCF7, 72 h, 72 hr",88 ± 5.4%
same,cytotoxicity at 150 µg/mL,"[3]; MCF7, 72 h, 72 hr",84.5 ± 5.1%
same,cytotoxicity at 50 µg/mL,"[3]; MCF7, 96 h, 96 hr",97.8 ± 1.7%
same,cytotoxicity at 100 µg/mL,"[3]; MCF7, 96 h, 96 hr",97.8 ± 1.7%
same,cytotoxicity at 150 µg/mL,"[3]; MCF7, 96 h, 96 hr",96.5 ± 2.5%
same,killing of cells,[4]; [7],over 99%
same,cytotoxicity at 50 µg/mL,[4]; 24 h,91.3 ± 4.6%
same,cytotoxicity at 100 µg/mL,[4]; 24 h,93.3 ± 4.9%
same,cytotoxicity at 150 µg/mL,"[4]; 24 h, 24 hr",94 ± 4.9%
same,cytotoxicity at 50 µg/mL,[4]; 48 h,99.9%
same,cytotoxicity at 100 µg/mL,[4]; 48 h,99.9%
same,cytotoxicity at 150 µg/mL,"[4]; 48 h, 48 hr",99.9%
same,cytotoxicity at 50 µg/mL,"[5]; DU-145, 24 h, 24 hr",0%
same,cytotoxicity at 100 µg/mL,"[5]; DU-145, 24 h, 24 hr",27.5 ± 6.4%
same,cytotoxicity at 150 µg/mL,"[5]; DU-145, 24 h, 24 hr",43 ± 2.9%
same,cytotoxicity at 50 µg/mL,"[5]; DU-145, 48 h, 48 hr",0%
same,cytotoxicity at 100 µg/mL,"[5]; DU-145, 48 h, 48 hr",52.2 ± 3.4%
same,cytotoxicity at 150 µg/mL,"[5]; DU-145, 48 h, 48 hr",71 ± 7.3%
same,cytotoxicity at 50 µg/mL,"[5]; DU-145, 72 h, 72 hr",23.5 ± 4.5%
same,cytotoxicity at 100 µg/mL,"[5]; DU-145, 72 h, 72 hr",58.7 ± 2.1%
same,cytotoxicity at 150 µg/mL,"[5]; DU-145, 72 h, 72 hr",78.7 ± 3.4%
same,cytotoxicity at 50 µg/mL,"[5]; DU-145, 96 h, 96 hr",26.2 ± 5.5%
same,cytotoxicity at 100 µg/mL,"[5]; DU-145, 96 h, 96 hr",64 ± 4.2%
same,cytotoxicity at 150 µg/mL,"[5]; DU-145, 96 h, 96 hr",82.5 ± 3.7%
same,cytotoxicity at 50 µg/mL,"[6]; 24 h, 24 hr",61.7 ± 10%
same,cytotoxicity at 100 µg/mL,"[6]; 24 h, 24 hr",88.7 ± 5.5%
same,cytotoxicity at 150 µg/mL,"[6]; 24 h, 24 hr",90.5 ± 7.1%
same,cytotoxicity at 50 µg/mL,"[6]; 48 h, 48 hr",91 ± 3.6%
same,cytotoxicity at 100 µg/mL,"[6]; 48 h, 48 hr",92.7 ± 1.2%
same,cytotoxicity at 150 µg/mL,"[6]; 48 h, 48 hr",94.9 ± 5.3%
same,cytotoxicity at 50 µg/mL,"[6]; 72 h, 72 hr",100%
same,cytotoxicity at 100 µg/mL,"[6]; 72 h, 72 hr",100%
same,cytotoxicity at 150 µg/mL,"[6]; 72 h, 72 hr",100%
same,cytotoxicity at 50 µg/mL,"[6]; 96 h, 96 hr",100%
same,cytotoxicity at 100 µg/mL,"[6]; 96 h, 96 hr",100%
same,cytotoxicity at 150 µg/mL,"[6]; 96 h, 96 hr",> 96%
